Measurements: patent US20050085491A1, “Novel crystalline forms of valacyclovir hydrochloride” (priority 2003, published 2005)
“Also recorded” adds a separate entry of the source.

What was measured:
[1] = transformation of crystalline form on drying or squeezing (form identified by XRD); format: physicochemical
Experimental: All powder x-ray diffraction patterns were obtained by methods known in the art using a Scintag X′TRA X-ray powder diffractometer, equipped with a solid state Si(Li) detector thermoelectrically cooled, at scanning speed of 3° min.^−1. The scanning range was 2-40 degrees two-theta. Copper radiation of […] was used. The term x-ray diffraction “peaks” as used herein refers to x-ray diffraction reflections measured using an x-ray powder diffractometer. “Wet” samples (i.e. samples not dried) were analyzed “as is”. Dry samples were gently ground before analysis.
In yet another embodiment, the present invention relates to transformation, especially by drying or thermal treatment, of herein disclosed crystalline forms of valacyclovir hydrochloride to valacyclovir hydrochloride form I.
In a further embodiment, the present invention relates to transformation, especially by drying or squeezing, of herein disclosed crystalline forms of valacyclovir hydrochloride to valacyclovir hydrochloride for IV.

[2] = transformation of crystalline form on exposure to relative humidity; format: physicochemical; settings: atmosphere of about 50% relative humidity for a day or more
[3] = oral administration, healthy adults; cited from earlier work
[4] = oral administration; cited from earlier work
[5] = drying at 50° to 60° C. for about 30 min or more, hydrochloride
[6] = drying, conditions not stated, hydrochloride

SMILES: CC(C)[C@H](N)C(=O)OCCOCn1cnc2c(=O)nc(N)[nH]c21.Cl [form IX, valacyclovir hydrochloride]
- crystalline form obtained on drying [1, 5]: yields an anhydrous form of valacyclovir hydrochloride
- crystalline form obtained on drying [1, 6]: mixture of form I and anhydrous form

SMILES: CC(C)[C@H](N)C(=O)OCCOCn1cnc2c(=O)nc(N)[nH]c21.Cl [form V, valacyclovir hydrochloride]
- crystalline form before and after drying ([1]; dried at 50° C. under vacuum, hydrochloride): valacyclovir hydrochloride form V
- crystalline form obtained on drying [1, 6]: form V

SMILES: CC(C)[C@H](N)C(=O)OCCOCn1cnc2c(=O)nc(N)[nH]c21.Cl [form VIII, valacyclovir hydrochloride]
- crystalline form obtained on drying ([1]; drying at 20° to 120° C. for at least about 30 min): yields a hydrate of valacyclovir hydrochloride form I
- crystalline form obtained on drying ([1]; drying at 50-120° C.): resulted in form I

SMILES: CC(C)[C@H](N)C(=O)OCCOCn1cnc2c(=O)nc(N)[nH]c21.Cl [form X, valacyclovir hydrochloride]
- crystalline form obtained on drying [1, 5]: yields a hydrate of valacyclovir form I

SMILES: CC(C)[C@H](N)C(=O)OCCOCn1cnc2c(=O)nc(N)[nH]c21.Cl [form XI, valacyclovir hydrochloride]
- crystalline form obtained on drying ([1]; about 700 mm Hg, about 35° C., after 16 hours, about 35% humidity): form VIII
- crystalline form obtained on drying ([1]; about 700 mm Hg, about 35° C., after 20 hours, 30% humidity): form IV
- crystalline form obtained on drying [1, 6]: transformed to form I; also recorded: converted to form I
- crystalline form obtained on drying ([1]; vacuum of 250-350 mm Hg at about 35 degrees up to humidity of about 20%): form IV
- crystalline form obtained on reducing the water content ([1]; water content reduced to about 15 to 25%, e.g. by drying at about 30° to about 50° C.): transformation to form IV
- crystalline form obtained on squeezing ([1]; wet sample squeezed on a Buchner filter up to humidity of about 20%): form VIII

SMILES: CC(C)[C@H](N)C(=O)OCCOCn1cnc2c(=O)nc(N)[nH]c21.Cl [form XII, valacyclovir hydrochloride]
- crystalline form obtained on exposure to humidity [2]: transformation to valacyclovir hydrochloride form I

SMILES: CC(C)[C@H](N)C(=O)OCCOCn1cnc2c(=O)[nH]c(N)nc21 [valacyclovir, 1-valine, 2-[(2-amino-1,6-dihydro-6-oxo-9H-purin-9-yl)methoxy]ethyl ester]
- conversion to acyclovir [3]: converted rapidly and virtually completely to acyclovir
- absorption from the gastrointestinal tract [4]: rapidly absorbed
